Assay results reported in patent US20150328183A1, “PHARMACEUTICAL COMPOSITION AND USE FOR APPLYING 7,7''-DIMETHOXYAGASTISFLAVONE IN INHIBITING TUMOR METASTASIS” (NATIONAL CHIAO TUNG UNIVERSITY, priority 2014, published 2015).

Tests used:
TNF-α = experiment: LPS-induced TNF-α secretion by mouse splenocytes (ELISA); type: cell-based; details: 1 μg/ml LPS, 1.25 μg/ml DMGF, 72 hours; group without DMGF up to 200 pg/ml
Method: 1×10^6 mouse splenocyte suspension was seeded in 24-well culture plate supplemented with 1 μg/ml lipopolysaccharide (LPS) for inducing the immune cells of mouse splenocyte secreting TNF-α, and 0, 0.3125, 0.625, 1.25 μg/ml DMGF to each group. The mouse splenocyte were further incubated in 37° C. incubator for 72 hours. The culture medium was collected and tested for TNF-α concentration by ELISA kit for detecting TNF-α.
With the use of increased DMGF dose level, the lower the TNF-α concentration. For example, mouse splenocyte treated with 1.25 μg/ml DMGF secreted TNF-α concentration fell to 60 pg/ml. With reference to the result of example 6, pharmaceutical composition with DMGF has the ability to inhibit immune cells secreting TNF-α to inhibit inflammation. Since inflammation is related to improving angiogenesis and invasion, migration or other pathological effects of tumor cells, pharmaceutical composition with DMGF has the ability to inhibit inflammation, thus inhibiting tumor metastasis.

B16F10 cells = experiment: Anti-metastatic activity in mice bearing B16F10 tumors (tumor volume); type: in vivo; details: C57BL/6 mice with B16F10 tumors, 10 mg/kg and 50 mg/kg DMGF injected once every 2 to 3 days
Method: At least 3 8-week-old C57BL/6 mice (female) were i.v. injected with 1×10^6 B16F10 cells. Mice bearing tumors with more than 30 mm^3 were injected with PBS, 10 mg/kg DMGF and 50 mg/kg DMGF once every 2 to 3 days. […] That is, with reference to the result of example 5, pharmaceutical composition with DMGF indeed inhibits tumor cell migration, thus inhibiting tumor metastasis.

[1] = test system: Matrix metalloproteases-2 (MMP2) expression in B16F10 cells; experiment: MMP2 RNA expression by real-time PCR; type: cell-based, mouse; details: 1 μg/ml DMGF, 0 hour group defined as 1 times
Method: Culturing condition of B16F10 cells with tissue culture techniques is the same as example 2. B16F10 cell suspension was incubated in at least three plates, two of which were added biflavonoid DMGF (final concentration 1 μg/ml) and set back to 37° C. incubator and incubating for 12 and 24 hours, respectively. The culture medium and additional compound were sucked, and then the plate was washed with PBS. B16F10 cells were collected with trypsin-EDTA. And the third well was processes without DMGF, colleting B16F10 cells according to the above-mentioned method. Then total B16F10 cellular RNA was extracted with TRIzol (Invitrogen Life Technologies, Carlsbad, Calif., USA) and reverse-transcribed into cDNA using the extracted RNA template. The cDNA was further a template for real-time polymerase chain reaction (Real-time PCR). The forward primer and the reverse primer of MMP2 were [NT] and [NT], repectively, thus quantified the MMP2 expression level in the above-mentioned time period of control group and experiment group of the present example. In detail, reverse-transcription PCR was treated with SuperScript First-Strand system (Invitrogen Life Technologies). […] While the MMP2 expression level of “0 hour” group is defined as 1 times, the MMP2 expression level of “12 hours” group and “24 hours” group are both calculated according to the “0 hour” group.

Aspergillus flavus = details: cited from earlier work
[2] = test system: B16F10 mouse melanoma cells; experiment: Transwell (matrigel-coated) migration assay for metastasis inhibition; type: cell-based; details: 1 μg/ml DMGF, 4 hours, 8 μm film coated with matrigel, compared to the group without DMGF (100%)
Method: B16F10 mouse melanoma cells were maintained in 1% antibiotics of Dulbecco's modified Eagle's medium (DMEM; Gibco/Invitrogen, Carlsbad, Calif., USA) supplemented with heat-inactivated 10% fetal bovine serum (Gibco/Invitrogen, Carlsbad, Calif., USA). Antibiotic were preferably penicillin/streptomycin/amphotericin. Cell suspension (3×10^4) were treated with or without 1 μg/ml DMGF in the upper well of a transwell plate. The well without DMGF was used as a control group of experiment. DMEM cell culture medium was added into the upper and lower wells, and the lower well was further added fetal bovine serum, and then maintained in the incubator under 37° C. In other embodiment, B16F10 cell suspension was allowed to incubate in the 4 or 6 upper wells of transwell plate to comduct second repeat or duplicate tests, which is not for limited sense of present invention.
The bottom side of the upper well, which is between the upper well and the lower well, includes a transparent film. The present example applied 8 μm (coated with matrigel) transparent films for tumor metastasis test. […] The cells on the top of the filter were removed with a cotton swab and migrated cells on the underside were fixed with methanol, stained with 50 μg/ml propidium iodide and counted with a fluorescence microscope. […]

[3] = test system: SVEC4-10 mouse vascular endothelial cells; experiment: Polymerization of fibrous actin (Phallotoxin/DAPI staining); type: cell-based; details: SVEC4-10 cells, 16 ng/ml VEGF, 1 μg/ml DMGF, 3 to 4 hours
Method: Tissue culture technology for culturing SVEC4-10 mouse vascular endothelial cells can be referred to the culturing method of B16F10 in example 2, and is not repeated here. SVEC4-10 cell suspension (3×10^4) were incubated in at least two plates and treated with 16 ng/ml VEGF (Upstate Inc., Lake Placid, N.Y., USA) medium in the two 96-well plate, and one of the plate was further added with 1 μg/ml DMGF as an experiment group. After adding the culture medium and the above-mentioned compound, SVEC4-10 cells were incubated in 37° C. incubator for 3 to 4 hours and then dyed with diamidino-phenyl-indole (DAPI) and Phallotoxin, respectively. Diamidino-phenyl-indole can be combined with double-stranded DNA to label the position of nucleus. Phallotoxin capable of combining with fibrous actin is often used as the dye for observing the polymerization of fibrous actin. After dyeing, the polymerization of fibrous actin was observed under 40 magnification microscopic lens.
“A” (filaments or spot) in FIG.3 marks the structure of fibrous actin, and “B” (circle) in FIG. 3 marks the position of nucleus. […] Polymerization of fibrous actin is correlated with cell migration in which polymerization of fibrous actin happens. Cell migration is the early step of tumor metastasis.

For `COc1cc2oc(-c3ccc(O)cc3)cc(=O)c2c(O)c1-c1c(OC)cc(O)c2c(=O)cc(-c3ccc(O)cc3)oc12` [DMGF, 7,7″-Dimethoxyagastisflavone], the “TNF-α concentration secreted by mouse splenocyte” value (TNF-α) was 60 pg/mL, the “tumor volume versus PBS-treated mouse” value (B16F10 cells) was “significantly smaller” and the “MMP2 RNA expression level relative to 0 hour group” value ([1]; 12 hours) was 0.5 times. For the same molecule, the “MMP2 RNA expression level relative to 0 hour group” value ([1]; 24 hours) was 0.3 times, the “inhibition of aflatoxin secretion” value (Aspergillus flavus) was “inhibiting Aspergillus flavus secreting aflatoxin” and the “reduction in the capacity of B16F10 cells to migrate through the membrane of transwell chambers” value [2] was “about 65%”. For the same molecule, the “polymerization of fibrous actin” value [3] was “multiple dots without polymerization of fibrous actin”.
